Assay [1] addresses T1, EP4 (Homo sapiens, UniProt P35408). In words: EP4 flipr functional assay. It is filed as cell-based. The source says:
(§1) US 2007/0129552, incorporated by reference herein in its entirety, describes the methods used to obtain the in vitro data in the table below.

Assay [2] concerns the target T2, EP2 (Homo sapiens, UniProt P43116). In words: EP2 cAMP assay. The class given is cell-based.
Text: as §1
A general note: cAMP levels reflect the balance of adenylyl cyclase and phosphodiesterase activity.

The target in assay [3] is T1, EP4. In words: EP4 binding (Ki).
Text: as §1

The target of assay [4] is T2, EP2. In words: EP2 binding (Ki).
Text: as §1

Assay [5] has as its target T2, EP2. In words: EP2 flipr functional assay. The class given is cell-based.
Text: as §1

A value given as a limit tells only on which side of the number the result lay.

T2 sequence (P43116 whole entry): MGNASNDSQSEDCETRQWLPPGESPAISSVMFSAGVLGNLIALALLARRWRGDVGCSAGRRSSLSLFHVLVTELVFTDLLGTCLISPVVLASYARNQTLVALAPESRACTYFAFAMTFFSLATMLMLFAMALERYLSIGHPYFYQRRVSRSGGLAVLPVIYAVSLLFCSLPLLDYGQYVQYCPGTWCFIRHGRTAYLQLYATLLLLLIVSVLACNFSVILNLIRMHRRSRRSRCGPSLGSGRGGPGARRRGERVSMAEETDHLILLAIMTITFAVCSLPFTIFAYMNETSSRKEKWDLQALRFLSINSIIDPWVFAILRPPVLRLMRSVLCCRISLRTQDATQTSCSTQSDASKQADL
T1 sequence (P35408 whole entry): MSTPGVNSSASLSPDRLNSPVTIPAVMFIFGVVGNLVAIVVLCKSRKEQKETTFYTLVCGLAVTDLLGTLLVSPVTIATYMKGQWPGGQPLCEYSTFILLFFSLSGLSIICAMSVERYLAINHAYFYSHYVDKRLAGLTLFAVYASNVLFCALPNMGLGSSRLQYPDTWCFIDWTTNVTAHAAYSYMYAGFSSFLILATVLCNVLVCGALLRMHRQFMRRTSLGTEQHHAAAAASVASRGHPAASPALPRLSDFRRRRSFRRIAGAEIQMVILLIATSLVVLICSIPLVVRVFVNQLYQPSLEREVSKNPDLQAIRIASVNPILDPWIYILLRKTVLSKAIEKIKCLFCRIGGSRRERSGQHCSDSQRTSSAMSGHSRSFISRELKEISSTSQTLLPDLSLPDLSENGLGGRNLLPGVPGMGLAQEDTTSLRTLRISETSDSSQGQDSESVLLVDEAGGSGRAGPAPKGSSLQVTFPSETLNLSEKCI

What is called EC50 is the concentration at which the effect is half-maximal. The low end stands for higher potency in that assay, the high end for lower potency in that assay. In general, Ki refers to the dissociation constant of the complex between target and ligand, obtained from inhibition or displacement. Read a high Ki as lower affinity. For the compound `CCCCCCc1ccc(-c2cccn2CCCc2ccc(C(=O)O)s2)cc1` [Example 1, 5-(3-(2-(4-hexylphenyl)-1H-pyrrol-1-yl)propyl)thiophene-2-carboxylic acid], the values for the EC50 at EP4 [1], at EP2 [2] and on EP2 [5] were over 10 µM, 3 nM and 998 nM, respectively. In addition, the figures for the inhibitory constant (Ki) on EP4 [3] and on EP2 [4] were 2660 nM and 23 nM, respectively.

Values taken from patent publication US9637477B2, “Therapeutic substituted pyrroles” (Allergan, Inc., priority 2014, dated 2017).
